Measurements as given in patent publication US20230115208A1, “RING-FUSED THIAZOLINO 2-PYRIDONES, METHODS FOR PREPARATION THEREOF AND THEIR USE IN THE TREATMENT AND/OR PREVENTION OF TUBERCULOSIS” (QURETECH BIO AB, priority 2016, published 2023).

System: Mycobacterium tuberculosis Erdman
Assay: Biofilm inhibition of Mycobacterium tuberculosis (ocular inspection)
Format: cell-based
Conditions: for inhibition at 10 µM / inhibition at 25 µM / inhibition at 50 µM / inhibition at 100 µM: biofilm inhibition, average of three or more measurements (100/50/0% scoring); for inhibition at 10 µM: read-out: Average % Inhibition at 10 μM; for inhibition at 25 µM: read-out: Average % Inhibition at 25 μM; for minimal effective concentration: concentration at which full biofilm inhibition took place, replicate determinations in one cell

SMILES	inhibition at 10 µM [%]	inhibition at 25 µM [%]	inhibition at 50 µM [%]	minimal effective concentration [µM]	inhibition at 100 µM [%]
Cc1ccc(Cc2cc(=O)n3c(c2C2CC2)SC[C@H]3C(=O)O)c2ccccc12 [Example 4, (3R)-7-Cyclopropyl-6-[(4-methyl-1-naphthyl)methyl]-4-oxo-1-thia-3a-aza-3-indancarboxylic acid]	100	100	100	25	–
CCC(CO)NCCNC(CC)COC(=O)C1CSc2c(C3CC3)c(Cc3cccc4ccccc34)cc(=O)n21 (stereo not drawn) [Example 37, 2-{2-[1-(Hydroxymethyl)propylamino]ethylamino}butyl 7-cyclopropyl-6-[(1-naphthyl)methyl]-4-oxo-1-thia-3a-aza-3-indancarboxylate]	100	100	100	–	–
Cc1ccc(F)c(Cc2cc(=O)n3c(c2C2CC2)SC[C@H]3C(=O)O)c1 [Example 8, (3R)-7-Cyclopropyl-6-[(2-fluoro-5-methyl-phenyl)methyl]-4-oxo-1-thia-3a-aza-3-indancarboxylic acid]	75	63	75	25	–
Cc1cccc(Cc2cc(=O)n3c(c2C2CC2)SC[C@H]3C(=O)O)c1 [Example 27, (3R)-7-Cyclopropyl-4-oxo-6-[(m-tolyl)methyl]-1-thia-3a-aza-3-indancarboxylic acid]	75	88	100	25	–
O=C(O)C1C[S+]([O-])c2c(C3CC3)c(Cc3cccc4ccccc34)cc(=O)n21 (stereo not drawn) [Example 44, 7-Cyclopropyl-6-[(1-naphthyl)methyl]-1-oxo-4-oxo-1-thia-3a-aza-3-indancarboxylic acid]	25	75	100	–	–
CC(C)COc1c(Cc2cccc3ccccc23)cc(=O)n2c1SC[C@H]2C(=O)O [Example 48, (3R)-7-Isobutoxy-6-[(1-naphthyl)methyl]-4-oxo-1-thia-3a-aza-3-indancarboxylic acid]	–	–	50	–	–
O=C(O)[C@@H]1CSc2c(C(F)(F)F)c(Cc3cccc4ccccc34)cc(=O)n21 [Example 47, (3R)-6-[(1-Naphthyl)methyl]-4-oxo-7-(trifluoromethyl)-1-thia-3a-aza-3-indancarboxylic acid]	–	–	100	> 50	–
CON(C)C(=O)[C@@H]1CSc2c(C3CC3)c(Cc3cccc4ccccc34)cc(=O)n21 [Example 11, (N-Methylmethoxyamino){(3R)-7-cyclopropyl-6-[(1-naphthyl)methyl]-4-oxo-1-thia-3a-aza-3-indanyl}formaldehyde]	75	38	88	–	–
O=C(O)[C@H]1CSc2c(C3CC3)c(Cc3cccc4ccccc34)cc(=O)n21 [Example 5, (3S)-7-Cyclopropyl-6-[(1-naphthyl)methyl]-4-oxo-1-thia-3a-aza-3-indancarboxylic acid]	100	100	100	5	–
CO[C@H]1Sc2c(C3CC3)c(Cc3cccc4ccccc34)cc(=O)n2[C@@H]1C(=O)O [Example 35, (2S,3R)-7-Cyclopropyl-2-methoxy-6-[(1-naphthyl)methyl]-4-oxo-1-thia-3a-aza-3-indancarboxylic acid]	–	25	–	50	75
Cc1cccc(-c2sc3c(C4CC4)c(Cc4cccc5ccccc45)cc(=O)n3c2C(=O)O)c1 [Example 14, 5-Cyclopropyl-4-[(1-naphthyl)methyl]-2-oxo-8-(m-tolyl)-7-thia-1-azabicyclo[4.3.0]nona-3,5,8-triene-9-carboxylic acid]	0	88	100	–	–
O=C(O)[C@@H]1CSc2c(C3CC3)c(Cc3cccc4ccccc34)c(Br)c(=O)n21 [Example 41, (3R)-5-Bromo-7-cyclopropyl-6-[(1-naphthyl)methyl]-4-oxo-1-thia-3a-aza-3-indancarboxylic acid]	25	62	88	–	100
Cn1cc(-c2c(COc3cccc4ccccc34)cc(=O)n3c2SCC3C(=O)O)c2ccccc21 (stereo not drawn) [Example 29, 7-(1-Methyl-1H-indol-3-yl)-6-[(1-naphthyloxy)methyl]-4-oxo-1-thia-3a-aza-3-indancarboxylic acid]	–	–	–	50	–
O=C(O)[C@@H]1[C@@H](c2ccccc2)Sc2c(C3CC3)c(Cc3cccc4ccccc34)cc(=O)n21 [Example 34, (2R,3R)-7-Cyclopropyl-6-[(1-naphthyl)methyl]-4-oxo-2-phenyl-1-thia-3a-aza-3-indancarboxylic acid]	–	–	25	30	–
COc1ccc(Cc2cc(=O)n3c(c2C2CC2)SCC3C(=O)O)c2ccccc12 (stereo not drawn) [Example 39, 7-Cyclopropyl-6-[(4-methoxy-1-naphthyl)methyl]-4-oxo-1-thia-3a-aza-3-indancarboxylic acid]	50	100	100	–	–
O=C(O)[C@@H]1CSc2c(C3CC3)c(COc3cccc4ccccc34)cc(=O)n21 [Example 7, (3R)-7-Cyclopropyl-6-[(1-naphthyloxy)methyl]-4-oxo-1-thia-3a-aza-3-indancarboxylic acid]	50	100	100	25	–
O=C(O)[C@@H]1CSc2c(C3CC3)c(Cc3ccc4ccccc4c3)cc(=O)n21 [Example 15, (3R)-7-Cyclopropyl-6-[(2-naphthyl)methyl]-4-oxo-1-thia-3a-aza-3-indancarboxylic acid]	87	100	100	50	–
O=C(O)[C@@H]1CSc2c(C3CC3)c(Cc3ccc(Br)c4ccccc34)cc(=O)n21 [Example 30, (3R)-6-[(4-Bromo-1-naphthyl)methyl]-7-cyclopropyl-4-oxo-1-thia-3a-aza-3-indancarboxylic acid]	–	–	–	50	–
CCOc1c(Cc2cccc3ccccc23)cc(=O)n2c1SC[C@H]2C(=O)O [Example 45, (3R)-7-Ethoxy-6-[(1-naphthyl)methyl]-4-oxo-1-thia-3a-aza-3-indancarboxylic acid]	–	50	25	–	–
O=C(NS(=O)(=O)c1ccccc1)[C@@H]1CSc2c(C3CC3)c(Cc3cccc4ccccc34)cc(=O)n21 [Example 22, {(3R)-7-Cyclopropyl-6-[(1-naphthyl)methyl]-4-oxo-1-thia-3a-aza-3-indanyl}(phenylsulfonylamino)formaldehyde]	–	38	25	–	–
O=C(O)[C@@H]1CSc2c(C3CC3)c(Cc3cc4ccccc4s3)cc(=O)n21 [Example 2, (3R)-7-Cyclopropyl-4-oxo-6-{(7-thiabicyclo[4.3.0]nona-1,3,5,8-tetraen-8-yl)methyl}-1-thia-3a-aza-3-indancarboxylic acid]	63	100	75	25	–
CC1(C)Sc2c(C3CC3)c(Cc3cccc4ccccc34)cc(=O)n2[C@@H]1C(=O)O [Example 46, (3R)-7-Cyclopropyl-2,2-dimethyl-6-[(1-naphthyl)methyl]-4-oxo-1-thia-3a-aza-3-indancarboxylic acid]	–	62	38	–	–
O=C(O)[C@@H]1CSc2c(C3CC3)c(Cc3cccc4ccccc34)c(CO)c(=O)n21 [Example 32, (3R)-7-Cyclopropyl-5-(hydroxymethyl)-6-[(1-naphthyl)methyl]-4-oxo-1-thia-3a-aza-3-indancarboxylic acid]	–	–	–	50	–
O=C(O)C1CSc2c(C3CC3)c(Cc3cccc(C(F)(F)F)c3)cc(=O)n21 (stereo not drawn) [Example 36, 7-Cyclopropyl-4-oxo-6-{[m-(trifluoromethyl)phenyl]methyl}-1-thia-3a-aza-3-indancarboxylic acid]	100	100	100	–	–
O=c1cc(Cc2cccc3ccccc23)c(C2CC2)c2n1[C@H](c1nnn[nH]1)CS2 [Example 12, (3R)-7-Cyclopropyl-6-[(1-naphthyl)methyl]-3-(1H-1,2,3,4-tetrazol-5-yl)-1-thia-3a-aza-4-indanone]	12	50	87	–	–
O=C(O)[C@@H]1CSc2c(C3CC3)c(Cc3ccc(F)c4ccccc34)cc(=O)n21 [Example 3, (3R)-7-Cyclopropyl-6-[(4-fluoro-1-naphthyl)methyl]-4-oxo-1-thia-3a-aza-3-indancarboxylic acid]	100	100	100	50	–
O=C(O)c1c(-c2ccsc2)sc2c(C3CC3)c(Cc3cccc4ccccc34)cc(=O)n12 [Example 6, 5-Cyclopropyl-4-[(1-naphthyl)methyl]-2-oxo-8-(3-thienyl)-7-thia-1-azabicyclo[4.3.0]nona-3,5,8-triene-9-carboxylic acid]	50	88	100	30	100
Cc1cccc(NCc2cc(=O)n3c(c2C2CC2)SC[C@H]3C(=O)O)c1C [Example 43, (3R)-7-Cyclopropyl-4-oxo-6-[(2,3-xylidino)methyl]-1-thia-3a-aza-3-indancarboxylic acid]	–	50	100	–	–
Cc1c(Cc2cccc3ccccc23)cc(=O)n2c1SC[C@H]2C(=O)O [Example 10, (3R)-7-Methyl-6-[(1-naphthyl)methyl]-4-oxo-1-thia-3a-aza-3-indancarboxylic acid]	69	100	100	–	–
